Laboratory results published in PMC6061170, “Synthesis and biological investigations of 3β-aminotropane arylamide derivatives with atypical antipsychotic profile” (Medicinal Chemistry Research, 2018).
Counter-ions that a name gives are not always drawn. Like-named read-outs stand apart in the source and are kept apart here.

Experiments:
dopamine D2 receptors = dopamine D2 receptors (Rattus norvegicus, UniProt P61169); test: Radioligand binding assay, D2 receptors
[1] = molecular target: T1, serotonin 5-HT1A receptors (Rattus norvegicus, UniProt P19327); test: Radioligand binding assay, 5-HT1A receptors
T1 construct: from tissue; host or cells: rat brain tissues
T1 sequence (P19327 1-422): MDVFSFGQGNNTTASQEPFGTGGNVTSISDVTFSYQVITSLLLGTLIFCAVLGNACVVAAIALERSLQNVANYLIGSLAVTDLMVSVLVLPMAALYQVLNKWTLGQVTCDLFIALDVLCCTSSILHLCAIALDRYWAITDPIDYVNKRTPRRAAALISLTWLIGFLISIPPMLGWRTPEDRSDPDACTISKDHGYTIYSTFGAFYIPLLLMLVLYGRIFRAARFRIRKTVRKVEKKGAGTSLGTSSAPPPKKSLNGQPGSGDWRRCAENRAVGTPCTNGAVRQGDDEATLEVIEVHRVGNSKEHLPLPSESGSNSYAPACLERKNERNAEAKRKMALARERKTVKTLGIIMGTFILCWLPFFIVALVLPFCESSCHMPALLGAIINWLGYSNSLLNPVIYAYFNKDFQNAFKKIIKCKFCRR
Procedure: All compounds were tested for their affinities for 5-HT1A, 5-HT2A, and D2 receptors according to previously described procedures (Stefanowicz et al. [2016]).
Competition binding studies were performed according to a previously described procedure in rat brain tissues (Stefanowicz et al. [2016]).

[2] = molecular target: T2, serotonin 5-HT2A receptors (Rattus norvegicus, UniProt P14842); test: Radioligand binding assay, 5-HT2A receptors
T2 construct: from tissue; host or cells: rat brain tissues

[3] = rat brain tissues, read-out: D2 IC50 [nM] ± SEM
[4] = rat brain tissues, read-out: D2 Ki [nM] ± SEM
[5] = rat brain tissues, read-out: 5-HT1A IC50 [nM] ± SEM
[6] = rat brain tissues, read-out: 5-HT1A Ki [nM] ± SEM
[7] = rat brain tissues, read-out: 5-HT2A IC50 [nM] ± SEM
[8] = rat brain tissues, read-out: 5-HT2A Ki [nM] ± SEM

T2 sequence (P14842 whole entry): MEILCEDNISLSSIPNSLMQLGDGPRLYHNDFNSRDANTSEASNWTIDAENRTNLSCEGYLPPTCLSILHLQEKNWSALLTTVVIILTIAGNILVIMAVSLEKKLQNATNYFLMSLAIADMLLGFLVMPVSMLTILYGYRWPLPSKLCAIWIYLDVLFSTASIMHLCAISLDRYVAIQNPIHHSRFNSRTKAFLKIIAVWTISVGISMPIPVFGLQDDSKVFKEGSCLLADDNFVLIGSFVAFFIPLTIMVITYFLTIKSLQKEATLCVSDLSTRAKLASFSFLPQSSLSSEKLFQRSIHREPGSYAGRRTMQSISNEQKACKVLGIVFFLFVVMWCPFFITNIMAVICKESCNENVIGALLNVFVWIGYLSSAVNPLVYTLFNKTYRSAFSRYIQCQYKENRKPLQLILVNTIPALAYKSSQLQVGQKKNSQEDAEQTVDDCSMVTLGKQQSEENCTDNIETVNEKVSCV
Sequence of dopamine D2 receptors (P61169 1-415 isoform P61169-2): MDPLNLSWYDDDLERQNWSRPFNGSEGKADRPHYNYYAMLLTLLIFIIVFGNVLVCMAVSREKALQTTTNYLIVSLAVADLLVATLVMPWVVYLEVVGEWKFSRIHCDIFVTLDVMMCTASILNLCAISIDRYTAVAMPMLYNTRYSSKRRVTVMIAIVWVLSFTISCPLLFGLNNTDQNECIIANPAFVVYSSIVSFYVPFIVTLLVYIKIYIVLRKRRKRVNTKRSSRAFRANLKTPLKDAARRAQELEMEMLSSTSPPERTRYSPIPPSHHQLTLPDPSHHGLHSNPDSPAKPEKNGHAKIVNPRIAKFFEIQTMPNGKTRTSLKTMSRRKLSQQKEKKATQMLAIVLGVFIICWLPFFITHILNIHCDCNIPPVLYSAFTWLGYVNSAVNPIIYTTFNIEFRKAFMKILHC

Row | Structure (SMILES) | IC50 (dopamine D2 receptors; [3]) [nM] | Ki (dopamine D2 receptors; [4]) [nM] | IC50 [1, 5] [nM] | Ki [1, 6] [nM] | IC50 [2, 7] [nM] | Ki [2, 8] [nM] | melting point [°C] | IC50 (dopamine D2 receptors) [nM] | Ki (dopamine D2 receptors) [nM] | IC50 [1] [nM] | Ki [1] [nM] | IC50 [2] [nM] | Ki [2] [nM]
1 | O=C(NC1CC2CCC(C1)N2Cc1cccnc1)c1ccc2ccccc2n1 (centres unmarked) [Compound 12p] | 5440 ± 1030 | 1090 ± 205 | 3250 ± 122 | 1080 ± 40.5 | > 10000 | > 10000 | 143 to 143.4 |  |  |  |  |  | 
2 | COc1cc(C(=O)NC2CC3CCC(C2)N3Cc2ccncc2)nc2ccccc12 (centres unmarked) [Compound 12w] | > 10000 | > 10000 | 942 ± 52.9 | 314 ± 18 | > 10000 | > 10000 | 52 to 55 |  |  |  |  |  | 
3 | O=C(NC1CC2CCC(C1)N2Cc1cccnc1)c1cnc2ccccc2c1 (centres unmarked) [Compound 12q] |  |  |  |  |  |  | 138.3 to 146.2 | > 10000 | > 10000 | > 10000 | > 10000 | > 10000 | > 10000
4 | Cc1ccc(CN2C3CCC2CC(NC(=O)c2ccc4ccccc4n2)C3)cc1 (stereo not drawn) (as salt: oxalate) [Compound 12i, N-[8-(4-methylbenzyl)-8-azabicyclo[3.2.1]oct-3β-yl)]-quinoline-2-carboxamide oxalate] |  |  |  |  |  |  | 215 to 215.4 |  |  |  |  |  | 
5 | COc1cc(C(=O)NC2CC3CCC(C2)N3Cc2ccccn2)nc2ccccc12 (centres unmarked) [Compound 12o] | > 10000 | > 10000 | 453 ± 12.6 | 151 ± 4.1 | > 10000 | > 10000 | 132.5 to 133 |  |  |  |  |  | 
6 | Cc1ccccc1CN1C2CCC1CC(NC(=O)c1ccc3ncccc3c1)C2 (centres unmarked) [Compound 12c] | 1270 ± 63 | 254 ± 12.8 | 1350 ± 159 | 450 ± 53 | > 10000 | > 10000 | 211.4 to 212.7 |  |  |  |  |  | 
7 | COc1cc(C(=O)NC2CC3CCC(C2)N3Cc2cccnc2)nc2ccccc12 (centres unmarked) [Compound 12s] | > 10000 | > 10000 | 3750 ± 264 | 1250 ± 88 | > 10000 | > 10000 | 162.6 to 165.5 |  |  |  |  |  | 
8 | O=C(NC1CC2CCC(C1)N2Cc1ccncc1)c1ccc2ccccc2n1 (centres unmarked) [Compound 12t] | > 10000 | > 10000 | 2430 ± 31 | 809 ± 10.5 | > 10000 | > 10000 | 143 to 145.7 |  |  |  |  |  | 
9 | Cc1cccc(CN2C3CCC2CC(NC(=O)c2cnc4ccccc4c2)C3)c1 (centres unmarked) [Compound 12f] | 2730 ± 202 | 546 ± 40.2 | 255 ± 9.6 |  | 5290 ± 148 | 1440 ± 40.5 | 194 to 194.7 |  |  |  | 84.5 ± 3.4 |  | 
10 | Cc1ccc(CN2C3CCC2CC(NC(=O)c2cnc4ccccc4c2)C3)cc1 (centres unmarked) [Compound 12j] | 227 ± 37.6 |  | 493 ± 44.5 | 164 ± 15 | > 10000 | > 10000 | 219.5 to 220.8 |  | 45.3 ± 7.5 |  |  |  | 
11 | O=C(NC1CC2CCC(C1)N2Cc1ccncc1)c1cnc2ccccc2c1 (centres unmarked) [Compound 12u] |  |  |  |  |  |  | 69.5 to 72 | > 10000 | > 10000 | > 10000 | > 10000 | 4528 ± 22.5 | 1229 ± 6
12 | Cc1ccccc1CN1C2CCC1CC(NC(=O)c1cnc3ccccc3c1)C2 (centres unmarked) [Compound 12b] | 1630 ± 23 | 326 ± 4.5 | 244 ± 14.9 |  | 3780 ± 348 | 1030 ± 94 | 179.2 to 180.2 |  |  |  | 81.5 ± 5 |  | 
13 | Nc1cccc(CN2C3CCC2CC(NC(=O)c2ccc4ccccc4c2)C3)c1 (centres unmarked) [Compound 19b] | 1560 ± 19.9 | 312 ± 3.9 | 862 ± 49.5 | 286 ± 16.4 | 766 ± 48.4 | 208 ± 13.2 | 165.4 to 166.6 |  |  |  |  |  | 
14 | O=C(NC1CC2CCC(C1)N2Cc1ccccn1)c1ccc2ccccc2n1 (centres unmarked) [Compound 12l] | 3080 ± 350 | 616 ± 70.3 | 665 ± 14.3 | 221 ± 4.7 | > 10000 | > 10000 | 150.2 to 151 |  |  |  |  |  | 
15 | O=C(NC1CC2CCC(C1)N2Cc1ccncc1)c1ccc2ncccc2c1 (centres unmarked) [Compound 12v] |  |  |  |  |  |  | 182 to 183.3 | > 10000 | > 10000 | > 10000 | > 10000 | > 10000 | > 10000
16 | Cc1ccc(CN2C3CCC2CC(NC(=O)c2ccc4ncccc4c2)C3)cc1 (centres unmarked) [Compound 12k] | 172 ± 5 |  | 1530 ± 58 | 511 ± 19 | > 10000 | > 10000 | 211.9 to 213 |  | 34.2 ± 0.8 |  |  |  | 
17 | O=C(NC1CC2CCC(C1)N2Cc1cccnc1)c1ccc2ncccc2c1 (centres unmarked) [Compound 12r] |  |  |  |  |  |  | 158.3 to 162.5 | > 10000 | > 10000 | > 10000 | > 10000 | > 10000 | > 10000
18 | Cc1cccc(CN2C3CCC2CC(NC(=O)c2ccc4ncccc4c2)C3)c1 (centres unmarked) [Compound 12g] | 1370 ± 81.8 | 275 ± 16.5 | 867 ± 29.7 | 289 ± 9.9 | > 10000 | > 10000 | 174.4 to 175.5 |  |  |  |  |  | 
19 | Cc1ccccc1CN1C2CCC1CC(NC(=O)c1ccc3ccccc3n1)C2 (centres unmarked) [Compound 12a] | 263 ± 20.5 |  | 140 ± 6.7 |  | > 10000 | > 10000 | 120.8 to 121.4 |  | 52 ± 4 |  | 46.6 ± 2.2 |  | 
20 | O=C(NC1CC2CCC(C1)N2Cc1ccccn1)c1cnc2ccccc2c1 (centres unmarked) [Compound 12m] | > 10000 | > 10000 | 850 ± 135 | 283 ± 45 | > 10000 | > 10000 | 169.4 to 170.5 |  |  |  |  |  | 
